Laboratory results reported in patent US9085527B2, “Fatty acid acylated salicylates and their uses” (Catabasis Pharmaceuticals, Inc., priority 2008, dated 2015).

Each compound was assayed on NFκB (assay: NFκB-driven luciferase reporter in RAW 264.7 cells challenged with LPS). Conditions: Mus musculus, RAW264.7, 200 ng/mL LPS for 3 hours, read-out: NFκB Inhibitory Activity, IC50 μM.
Type: cell-based, mouse
Experimental: RAW 264.7 cells transfected with an NFκB-driven luciferase reporter are plated in 96 well plates. Cells are treated with Vehicle (0.1% ethanol) or test compounds for 2 hours. As a positive control for inhibition of NFκB signaling, 6 wells are treated with 10 μM dexamethasone. Cells are then challenged with 200 ng/mL LPS for 3 hours in the presence of test compounds. A subset of wells treated with vehicle should remain unstimulated with LPS to determine the floor signal of the assay. NFκB driven luciferase activity is developed by addition of BriteLite luciferase kit (Perkin-Elmer) and measured using a Victor V plate reader. NFκB activity (luciferase activity) for each treatment was normalized to Vehicle wells treated with LPS (% NFκB Response). AlamarBlue was used to monitor cell viability to ensure that inhibition of luciferase signal was not a result of compound cytotoxicity.
RAW 264.7 cells stably expressing a 3×NF-κB response element-driven luciferase reporter were seeded into 96 well plates. After 18 hours, cells were pre-treated with compounds of the invention for 2 hours, and then stimulated with LPS (lipopolysaccharide, 200 ng/mL) or vehicle control for 3 h in the presence of the compounds of the invention. A set of six vehicle was left unstimulated with LPS in order to measure the assay floor. AlamarBlue viability dye (Invitrogen) was added to cells simultaneously with the delivery of LPS (final AlamarBlue concentration of 10%). After the 3 h incubation period with LPS, cell viability was measured by reading fluorescence (excitation 550 nm, emission 595 nm) with a Perkin Elmer Victor V plate reader. Then cell media was aspirated from each well. Luciferase signal was then developed by addition of the Britelite Plus reagent (Perkin Elmer). Luciferase activity was measured with the Perkin Elmer Victor V plate reader. NF-κB activity was expressed as a percent of the vehicle control wells (stimulated with LPS). Compounds were tested at 6 dose point titrations in triplicate to determine IC50 values.

Row | IC50 | SMILES
1 | < 200 µM | CC/C=C\C/C=C\C/C=C\C/C=C\C/C=C\C/C=C\CCC(=O)NC(Cc1ccccc1)C(=O)Oc1ccccc1C(=O)OCC (centres unmarked) [Ii-3, ethyl 2-(2-(4Z,7Z,10Z,13Z,16Z,19Z)-docosa-4,7,10,13,16,19-hexaenamido-3-phenylpropanoyloxy)benzoate]
2 | < 200 µM | CC/C=C\C/C=C\C/C=C\C/C=C\C/C=C\C/C=C\CCC(=O)NCCN1C(=O)CC(SC[C@H](NC(=O)c2ccccc2O)C(=O)OC)C1=O (stereo partly drawn) [Ih-11, (R)-methyl 3-(1-(2-(4Z,7Z,10Z,13Z,16Z,19Z)-docosa-4,7,10,13,16,19-hexaenamidoethyl)-2,5-dioxopyrrolidin-3-ylthio)-2-(2-hydroxybenzamido)propanoate]
3 | < 200 µM | CC/C=C\C/C=C\C/C=C\C/C=C\C/C=C\C/C=C\CCC(=O)NCCNC(=O)c1cc(-c2ccc(F)cc2F)ccc1O [Ih-9, N-(2-(4Z,7Z,10Z,13Z,16Z,19Z)-docosa-4,7,10,13,16,19-hexaenamidoethyl)-2′,4′-difluoro-4-hydroxybiphenyl-3-carboxamide]
4 | < 200 µM | CC/C=C\C/C=C\C/C=C\C/C=C\C/C=C\C/C=C\CCC(=O)NC(CC(C)C)C(=O)Nc1ccc(O)c(C(=O)O)c1 (centres unmarked) [III-6, 5-(2-(4Z,7Z,10Z,13Z,16Z,19Z)-docosa-4,7,10,13,16,19-hexaenamido-4-methylpentanamido)-2-hydroxybenzoic acid]
5 | < 200 µM | CC/C=C\C/C=C\C/C=C\C/C=C\C/C=C\C/C=C\CCC(=O)NCC(C)NC(=O)c1ccccc1O (centres unmarked) [Ih-5, N-(1-(4Z,7Z,10Z,13Z,16Z,19Z)-docosa-4,7,10,13,16,19-hexaenamidopropan-2-yl)-2-hydroxybenzamide]
6 | < 200 µM | CC/C=C\C/C=C\C/C=C\C/C=C\C/C=C\C/C=C\CCC(=O)Oc1ccc(-c2ccc(F)cc2F)cc1C(=O)OCC [IVc-2, ethyl 4-((4Z,7Z,10Z,13Z,16Z,19Z)-docosa-4,7,10,13,16,19-hexaenoyloxy)-2′,4′-difluorobiphenyl-3-carboxylate]
7 | > 200 µM | CC/C=C\C/C=C\C/C=C\C/C=C\C/C=C\C/C=C\CCC(=O)NCC(=O)Nc1ccc(O)c(C(=O)O)c1 [IIIf-1, 5-(2-(4Z,7Z,10Z,13Z,16Z,19Z)-docosa-4,7,10,13,16,19-hexaenamidoacetamido)-2-hydroxybenzoic acid]
8 | < 200 µM | CC/C=C\C/C=C\C/C=C\C/C=C\C/C=C\C/C=C\CCC(=O)NCC(C)(C)NC(=O)c1ccccc1O [Compound I-4, N-(1-(4Z,7Z,10Z,13Z,16Z,19Z)-docosa-4,7,10,13,16,19-hexaenamido-2-methylpropan-2-yl)-2-hydroxybenzamide]
9 | < 200 µM | CC/C=C\C/C=C\C/C=C\C/C=C\C/C=C\C/C=C\CCC(=O)NCCNC(=O)c1ccccc1O [Ih-1, N-(2-(4Z,7Z,10Z,13Z,16Z,19Z)-docosa-4,7,10,13,16,19-hexaenamidoethyl)-2-hydroxybenzamide]
10 | > 200 µM | CC/C=C\C/C=C\C/C=C\C/C=C\C/C=C\C/C=C\CCC(=O)N1CCN(C(=O)c2ccccc2O)CC1 [Ih-2, (4Z,7Z,10Z,13Z,16Z,19Z)-1-(4-(2-hydroxybenzoyl)piperazin-1-yl)docosa-4,7,10,13,16,19-hexaen-1-one]
11 | < 200 µM | CC/C=C\C/C=C\C/C=C\C/C=C\C/C=C\C/C=C\CCC(=O)NCCOCCNC(=O)c1ccccc1O [Compound I-3, N-(2-(2-(4Z,7Z,10Z,13Z,16Z,19Z)-docosa-4,7,10,13,16,19-hexaenamidoethoxy)ethyl)-2-hydroxybenzamide]
12 | > 200 µM | Nc1ccc(O)c(C(=O)O)c1 [Compound 5-ASA, 5-aminosalicylic acid, reference compound]
13 | < 200 µM | CC/C=C\C/C=C\C/C=C\C/C=C\C/C=C\C/C=C\CCC(=O)NC(CC(C)C)C(=O)Oc1cc(C(F)(F)F)ccc1C(=O)OCC (centres unmarked) [Ii-5, ethyl 2-(2-(4Z,7Z,10Z,13Z,16Z,19Z)-docosa-4,7,10,13,16,19-hexaenamido-4-methylpentanoyloxy)-4-(trilluoromethyl)benzoate]
14 | < 200 µM | CC/C=C\C/C=C\C/C=C\C/C=C\C/C=C\C/C=C\CCC(=O)NC(CC(C)C)C(=O)Oc1ccccc1C(=O)OCC (centres unmarked) [Compound I-1, ethyl 2-(2-(4Z,7Z,10Z,13Z,16Z,19Z)-docosa-4,7,10,13,16,19-hexaenamido-4-methylpentanoyloxy)benzoate]
15 | < 200 µM | CC/C=C\C/C=C\C/C=C\C/C=C\C/C=C\C/C=C\CCC(=O)Oc1cc(C(F)(F)F)ccc1C(=O)OCC [VIc-3, ethyl 2-((4Z,7Z,10Z,13Z,16Z,19Z)-docosa-4,7,10,13,16,19-hexaenoyloxy)-4-(trilluoromethyl)benzoate]
16 | < 200 µM | CC/C=C\C/C=C\C/C=C\C/C=C\C/C=C\C/C=C\CCC(=O)N(C)CCNC(=O)c1ccccc1O [Ih-4, 2-hydroxy-N-(2-((4Z,7Z,10Z,13Z,16Z,19Z)—N-methyldocosa-4,7,10,13,16,19-hexaenamido)ethyl)benzamide]
17 | > 200 µM | CC/C=C\C/C=C\C/C=C\C/C=C\C/C=C\C/C=C\CCC(=O)NC(Cc1ccccc1)C(=O)Nc1ccc(O)c(C(=O)O)c1 (centres unmarked) [IIIf-2, 5-(2-(4Z,7Z,10Z,13Z,16Z,19Z)-docosa-4,7,10,13,16,19-hexaenamido-3-phenylpropanamido)-2-hydroxybenzoic acid]
18 | > 200 µM | CC/C=C\C/C=C\C/C=C\C/C=C\C/C=C\C/C=C\CCC(=O)O [DHA, docosahexaenoic acid, reference compound]
19 | > 200 µM | CC/C=C\C/C=C\C/C=C\C/C=C\C/C=C\C/C=C\CCC(=O)Oc1ccccc1C(=O)O [Ia-1, 2-((4Z,7Z,10Z,13Z,16Z,19Z)-docosa-4,7,10,13,16,19-hexaenoyloxy)benzoic acid]
20 | < 200 µM | CC/C=C\C/C=C\C/C=C\C/C=C\C/C=C\CCCC(=O)NCCNC(=O)c1cc(-c2ccc(F)cc2F)ccc1O [Ih-10, 2′,4′-difluoro-4-hydroxy-N-(2-(5Z,8Z,11Z,14Z,17Z)-icosa-5,8,11,14,17-pentaenamidoethyl)biphenyl-3-carboxamide]
21 | < 200 µM | CC/C=C\C/C=C\C/C=C\C/C=C\C/C=C\C/C=C\CCC(=O)NCCSSCCNC(=O)c1ccccc1O [Compound I-2, N-(2-(2-(2-(4Z,7Z,10Z,13Z,16Z,19Z)-docosa-4,7,10,13,16,19-hexaenamidoethyl)disulfanyl)ethyl)-2-hydroxybenzamide]
22 | > 200 µM | CC/C=C\C/C=C\C/C=C\C/C=C\C/C=C\C/C=C\CCC(=O)NCCNC(=O)c1ccc(C(F)(F)F)cc1O [Ih-8, N-(2-(4Z,7Z,10Z,13Z,16Z,19Z)-docosa-4,7,10,13,16,19-hexaenamidoethyl)-2-hydroxy-4-(trifluoromethyl)benzamide]
23 | < 200 µM | CC/C=C\C/C=C\C/C=C\C/C=C\C/C=C\C/C=C\CCC(=O)Nc1cccc(C(=O)O)c1 [Compound 17, 3-(4Z,7Z,10Z,13Z,16Z,19Z)-docosa-4,7,10,13,16,19-hexaenamidobenzoic acid]
24 | > 200 µM | CC/C=C\C/C=C\C/C=C\C/C=C\C/C=C\C/C=C\CCC(=O)NC(CC(C)C)C(=O)Oc1ccc(-c2ccc(F)cc2F)cc1C(=O)OCC (centres unmarked) [Ii-4, ethyl 4-(2-(4Z,7Z,10Z,13Z,16Z,19Z)-docosa-4,7,10,13,16,19-hexaenamido-4-methylpentanoyloxy)-2′,4′-difluorobiphenyl-3-carboxylate]
25 | < 200 µM | CC/C=C\C/C=C\C/C=C\C/C=C\C/C=C\C/C=C\CCC(=O)NC(C)C(C)NC(=O)c1ccccc1O (centres unmarked) [Ih-7, N-(3-(4Z,7Z,10Z,13Z,16Z,19Z)-docosa-4,7,10,13,16,19-hexaenamidobutan-2-yl)-2-hydroxybenzamide]
26 | < 200 µM | CC/C=C\C/C=C\C/C=C\C/C=C\C/C=C\C/C=C\CCC(=O)NC(C)CNC(=O)c1ccccc1O (centres unmarked) [Ih-6, N-(2-(4Z,7Z,10Z,13Z,16Z,19Z)-docosa-4,7,10,13,16,19-hexaenamidopropyl)-2-hydroxybenzamide]
27 | < 200 µM | CC/C=C\C/C=C\C/C=C\C/C=C\C/C=C\C/C=C\CCC(=O)NCCN(C)C(=O)c1ccccc1O [Ih-3, N-(2-(4Z,7Z,10Z,13Z,16Z,19Z)-docosa-4,7,10,13,16,19-hexaenamidoethyl)-2-hydroxy-N-methylbenzamide]

Row | SMILES | IC50
28 | CC/C=C\C/C=C\C/C=C\C/C=C\C/C=C\C/C=C\CCC(=O)NCCCOC(=O)c1ccccc1OC(C)=O [Ic-1, 3-(4Z,7Z,10Z,13Z,16Z,19Z)-docosa-4,7,10,13,16,19-hexaenamidopropyl 2-acetoxybenzoate] | > 200 µM
29 | CC/C=C\C/C=C\C/C=C\C/C=C\C/C=C\C/C=C\CCC(=O)OC(C)OC(=O)c1ccccc1OC(C)=O (centres unmarked) [Ic-12, 1-((4Z,7Z,10Z,13Z,16Z,19Z)-docosa-4,7,10,13,16,19-hexaenoyloxy)ethyl 2-acetoxybenzoate] | < 200 µM
30 | O=C(O)c1ccccc1O [SA, salicylic acid, reference compound] | > 200 µM
31 | CCCCC/C=C\C/C=C\C/C=C\C/C=C\CCCC(=O)Nc1ccc(O)c(C(=O)O)c1 [Compound 18, 2-hydroxy-5-(5Z,8Z,11Z,14Z)-icosa-5,8,11,14-tetraenamidobenzoic acid] | > 200 µM
32 | CC/C=C\C/C=C\C/C=C\C/C=C\C/C=C\CCCC(=O)Nc1ccc(O)c(C(=O)O)c1 [IIIg-1, 2-hydroxy-5-(5Z,8Z,11Z,14Z,17Z)-icosa-5,8,11,14,17-pentaenamidobenzoic acid] | < 200 µM
